Results from ChEMBL document CHEMBL3763034, “Exploring the importance of zinc binding and steric/hydrophobic factors in novel HCV replication inhibitors” (Bioorg Med Chem Lett, 2016).

Columns and labels:
[1] = test system: Hepatitis C virus; assay: Antiviral activity against HCV1b replicon (I389luc-ubi-neo/NS3-3/5.1) infected in Huh5-2 cells assessed as inhibition of viral RNA replication by luciferase reporter gene assay; type: functional, organism-based, Hepacivirus hominis; details: genotype 1b, Huh-5-2
[2] = Selectivity index, ratio of CC50 for human Huh5-2 cells to EC50 for hepatitis C virus genotype 1b I389luc-ubi-neo/NS3-3/5.1 replicon infected in human Huh5-2 cells; type: toxicity, cell-based, Huh-5-2; details: read-out: Ratio CC50/EC50
[3] = Cytotoxicity against human Huh5-2 cells assessed as reduction in cell metabolic activity after 72 hrs by MTS assay; type: ADME, cell-based, Huh-5-2
[4] = Binding affinity to zinc by UV-VIS spectroscopic analysis
[5] = test system: Hepatitis C virus; assay: Antiviral activity against HCV 1b replicon (I389luc-ubi-neo/NS3-3/5.1) infected in Huh-9-13 cells assessed as inhibition of viral RNA replication by RT-PCR method; type: functional, organism-based, Hepacivirus hominis; details: genotype 1b
[6] = Cytotoxicity against human Huh-9-13 cells assessed as reduction in cell metabolic activity after 72 hrs by MTS assay; type: ADME, cell-based
[7] = Selectivity index, ratio of CC50 for human Huh-9-13 cells to EC50 for hepatitis C virus genotype 1b I389luc-ubi-neo/NS3-3/5.1 replicon infected in human Huh-9-13 cells; type: toxicity, cell-based; details: read-out: Ratio CC50/EC50

Structure (SMILES) | EC50 [1] [µM] | Kd [4] [µM] | EC50 [5] [µM] | selectivity ratio [2] | CC50 at 72 h [3] [µM] | CC50 at 72 h [6] [µM] | selectivity ratio [7]
COC(=O)c1cccc2oc(-c3ccc4ccccc4c3O)nc12 | 52 | – | – | 1.2 | 64 | – | –
CNC(=O)c1cccc2[nH]c(-c3ccccc3O)nc12 | 16 | – | 3.1 | > 12 | > 187 | 47 | 15
CN(C)C(=O)c1cccc2oc(-c3ccccc3O)nc12 | 109 | – | – | > 1.6 | > 177 | – | –
COC(=O)c1cccc2[nH]c(-c3ccccc3O)nc12 | 106 | 190 | – | 1.3 | 132 | – | –
NC(=O)c1cccc2oc(-c3ccccc3O)nc12 | 47 | – | – | > 4.2 | > 197 | – | –
COC(=O)c1cccc2oc(-c3cccc4cccnc34)nc12 | > 50 | – | – | – | > 50 | – | –
COC(=O)c1cccc2oc(-c3cc4ccccc4cc3O)nc12 | 31 | – | – | > 1.6 | > 50 | – | –
O=C(NCc1ccccc1)c1cccc2oc(-c3ccccc3O)nc12 | 10 | – | – | > 5 | > 50 | – | –
O=C(O)c1cccc2[nH]c(-c3ccccc3O)nc12 | 24 | – | 23 | > 8.2 | > 197 | > 100 | > 4.3
COC(=O)c1cccc2oc(-c3c(O)ccc4ccccc34)nc12 | 28 | – | – | > 1.8 | > 50 | – | –
CNC(=O)c1cccc2oc(-c3ccccc3O)nc12 | 117 | 53 | – | > 1.6 | > 186 | – | –
COC(=O)c1cccc2oc(-c3ccccc3O)nc12 | 40 | 65 | – | 1.8 | 71 | – | –

These reach a lower EC50 [1]. Values come first.

EC50 [1] [µM] | Kd [4] [µM] | EC50 [5] [µM] | Structure (SMILES) | selectivity ratio [2] | CC50 at 72 h [3] [µM] | CC50 at 72 h [6] [µM] | selectivity ratio [7]
7.2 | – | – | CCCCNC(=O)c1cccc2oc(-c3ccccc3O)nc12 | 5.4 | 39 | – | –
4.9 | 0.5 | – | O=C(O)c1cccc2oc(-c3ccccc3O)nc12 | 5.1 | 25 | – | –
2.6 | – | 0.6 | O=C(O)c1cccc2c1nc(-c1ccccc1O)n2Cc1ccccc1 | > 55 | > 145 | > 100 | > 167
8.4 | – | 21 | CNC(=O)c1cccc2c1nc(-c1ccccc1O)n2Cc1ccccc1 | 12 | 101 | 38 | 1.8
2.5 | 0.23 | – | COC(=O)c1cccc2oc(-c3ccccc3S)nc12 | 1.6 | 4.1 | – | –
7.5 | – | 0.9 | COC(=O)c1cccc2c1nc(-c1ccccc1O)n2Cc1ccccc1 | > 19 | > 140 | 95 | 106
